According to US7030265B2, “Retinol derivatives, the method of preparations and the uses thereof” (Chebigen, Inc., priority 2001, dated 2006):
Several values for one entry are separate records, joined by “and”; a condition that tells them apart may be missing. Equal entries are not always repeated.

What was measured:
Type in all cases: cell-based
[1] = system: activation protein-1 (AP-1); test: Activity inhibition test of AP-1, Coll-CAT reporter in Cos-1 cells; conditions: for lowered the expression of collagenase (Coll-CAT): expression level in the presence of c-Jun expression set as 100%; for effect on AP-1 activity inhibition, compared in words: Coll-CAT
Description: CAT reporter (Coll-CAT) containing collagen promoter including AP-1 transcription factor binding site (TRE) was utilized to transfect Cos-1 cell line. Activity inhibition tests of activation protein-1 (AP-1) similar to the experimental example 6 were proceeded.

retinoic acid receptor α [2] = target: T1, retinoic acid receptor α (Homo sapiens, UniProt P10276); test: RAR activity test, DR5-tk-CAT reporter in Cos-1 cells; conditions: 1 μM, CAT ELISA, FIG. 3-5
T1 construct: expressed in transfected cells; b135 says HaCAT
T1 sequence (P10276 1-462): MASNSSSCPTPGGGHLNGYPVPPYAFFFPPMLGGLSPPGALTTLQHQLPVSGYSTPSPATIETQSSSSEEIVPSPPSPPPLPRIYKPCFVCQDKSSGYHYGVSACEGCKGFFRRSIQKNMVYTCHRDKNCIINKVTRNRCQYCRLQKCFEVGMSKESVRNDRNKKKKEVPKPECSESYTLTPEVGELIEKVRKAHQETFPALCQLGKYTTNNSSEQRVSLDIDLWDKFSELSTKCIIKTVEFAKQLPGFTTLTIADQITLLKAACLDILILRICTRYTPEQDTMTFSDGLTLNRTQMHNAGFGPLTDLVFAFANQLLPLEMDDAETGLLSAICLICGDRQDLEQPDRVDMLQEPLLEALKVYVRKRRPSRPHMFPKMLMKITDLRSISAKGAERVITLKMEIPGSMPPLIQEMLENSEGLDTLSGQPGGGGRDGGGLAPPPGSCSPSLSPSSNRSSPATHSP
Description: Recombinant DNA, DR5-tk-CAT consisting of DR5, effectors of retinoic acid receptor/retinoid X receptor, thymine kinase promoter, and CAT (chloramphenicol acetyl transferase) were mixed with the plasmid DNA expressing retinoic acid receptor α, β, ? and utilized to cotransfect skin cancer (HaCAT) cell line with lipofectamine (GibcoBRL). […] The cells were washed with phosphate-buffered saline (PBS), and the proteins were isolated from each cells, and the activity of β-galactosidase and protein contents were measured to determine transfection efficacy, the transcription level of RAR receptor were measured with CAT ELISA.
(§1) All procedures were done as Experimental Example 3.
as §1

[3] = system: activation protein-1 (AP-1); test: Activity inhibition test of AP-1, Coll-CAT reporter in HaCAT cells; conditions: c-Jun expression, in the presence of retinoic acid receptor α, CAT ELISA, FIG. 6
Method: Since the activation protein-1 (c-Jun is the constituent of AP-1) is transcription factor inducing expression of collagenase enzyme, which is a major cause of skin wrinkle, the effect of wrinkle prevention was determined by the activity inhibition test of AP-1.
CAT reporter (Coll-CAT) containing collagen promoter including AP-1 transcription factor binding site (TRE) were utilized to cotransfect skin cancer (HaCAT) cell line. The effect of retinol derivatives on the activity of AP-1 was measured by CAT ELISA. In some cases, the vector expressing c-Jun or retinoic acid receptors were utilized to cotransfect, and the effect of retinol derivatives on the transcription activity of c-Jun was analyzed.
With the assumption of the prepared retinol-(N-formyl-aspartam) derivatives which inhibit the activity of AP-1 causing skin wrinkle, would have the utility for cosmetics, the related investigations were proceeded. Similar to the experiment of retinoic acid receptor, AP-1 (c-jun) expression vector and Coll-CAT plasmid for the activity measurement were introduced into the skin cancer (HaCAT) cell line with liposome. After treating the cells with retinol-(N-formyl-aspartam) derivatives, the cell extracts were isolated. The expression level of CAT were measured with CAT ELISA to determine the effect of retinol-(N-formyl-aspartam) on the activity of the AP-1.

retinoic acid receptor α [4] = target: T1, retinoic acid receptor α; test: RAR activity test, DR5-tk-CAT reporter in HaCAT cells; conditions: 1 μM, CAT ELISA, FIG. 2 (A)
Description: (§2) To analyze the effects of retinol-(N-formyl-aspartam) on the activity of retinoic acid receptor, skin cancer (HaCAT) cell lines were utilized to measure the activity of retinoic acid receptor/retinoid X receptor.
(§3) Recombinant DNA, DR5-tk-CAT or DR1-tk-CAT consisting of DR1 or DR5, effectors of retinoic acid receptor/retinoid X receptor, thymine kinase promoter, and CAT(chloramphenicol acetyl transferase) were mixed with the plasmid DNA expressing retinoic acid receptor α, β, ? or retinoid X receptor α, β, ? to cotransfect skin cancer (HaCAT) cell line with lipofectamine (GibcoBRL). The cotransfected cell lines were cultured for 1 day on DMEM/10% FBS media, each retinol derivatives (1 μM) were added and cultured for one more day, 5% CO2, 37° C. The cells were washed with phosphate-buffered saline (PBS), and the proteins were isolated from each cells, and the activity of β-galactosidase and protein contents were measured to determine transfection efficacy, the transcription level of RAR or RXR receptor were measured with CAT ELISA (Roche Molecular Biochemical, Mannheim, Germany).
To determine the effect of retinol-(N-formyl-aspartam) on retinoic acid receptors, each retinoic acid receptor (α, β, or ? ) expression vector and activity measuring DR5-tk-CAT plasmid were introduced with liposome. After treating cells with retinol-(N-formyl-aspartam), the cell extracts were isolated. The expression level of CAT were measured with CAT ELISA to determine the effect of retinol-(N-formyl-aspartam) on the activity of retinoic acid receptors.

retinoid X receptor β = target: T2, retinoid X receptor β (Homo sapiens, UniProt P28702); test: RXR activity test, DR1-tk-CAT reporter in HaCAT cells; conditions: 1 μM, CAT ELISA, FIG. 2 (B)
T2 construct: expressed in transfected cells; host or cells: HaCAT
T2 sequence (P28702 1-533): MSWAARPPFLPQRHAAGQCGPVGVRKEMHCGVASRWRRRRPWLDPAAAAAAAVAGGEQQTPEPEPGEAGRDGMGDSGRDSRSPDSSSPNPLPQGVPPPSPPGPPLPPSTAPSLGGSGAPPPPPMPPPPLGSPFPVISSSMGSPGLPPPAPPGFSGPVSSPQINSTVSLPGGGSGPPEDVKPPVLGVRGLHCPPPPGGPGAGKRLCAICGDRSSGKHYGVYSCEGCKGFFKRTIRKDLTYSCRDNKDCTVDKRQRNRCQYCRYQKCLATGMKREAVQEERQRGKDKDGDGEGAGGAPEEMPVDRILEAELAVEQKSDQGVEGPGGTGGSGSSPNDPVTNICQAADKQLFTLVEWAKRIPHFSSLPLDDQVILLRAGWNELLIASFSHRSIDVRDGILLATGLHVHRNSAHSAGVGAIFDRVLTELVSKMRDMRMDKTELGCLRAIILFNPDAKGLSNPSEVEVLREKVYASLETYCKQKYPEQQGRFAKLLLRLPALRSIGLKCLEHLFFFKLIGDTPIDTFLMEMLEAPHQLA
Description: as §2, §3

retinoid X receptor γ = target: T3, retinoid X receptor γ (Homo sapiens, UniProt P48443); test: as above; conditions: 1 μM, CAT ELISA, FIG. 2 (B)
T3 construct: expressed in transfected cells; host or cells: HaCAT
T3 sequence (P48443 1-463): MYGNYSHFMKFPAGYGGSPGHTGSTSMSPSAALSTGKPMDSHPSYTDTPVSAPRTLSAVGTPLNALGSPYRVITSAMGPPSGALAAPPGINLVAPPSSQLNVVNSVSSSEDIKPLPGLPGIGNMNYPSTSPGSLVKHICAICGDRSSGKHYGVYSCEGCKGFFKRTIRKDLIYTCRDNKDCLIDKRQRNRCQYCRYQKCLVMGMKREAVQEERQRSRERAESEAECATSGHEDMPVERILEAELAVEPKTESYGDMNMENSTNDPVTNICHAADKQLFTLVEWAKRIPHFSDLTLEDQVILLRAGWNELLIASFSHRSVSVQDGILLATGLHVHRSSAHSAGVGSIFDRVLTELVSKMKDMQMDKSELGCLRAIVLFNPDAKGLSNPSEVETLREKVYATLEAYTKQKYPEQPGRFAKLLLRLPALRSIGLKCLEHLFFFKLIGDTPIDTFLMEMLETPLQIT
Description: as §2, §3

retinoid X receptor α = target: T4, retinoid X receptor α (Homo sapiens, UniProt P19793); test: as above; conditions: 1 μM, CAT ELISA, FIG. 2 (B)
T4 construct: expressed in transfected cells; host or cells: HaCAT
T4 sequence (P19793 1-462): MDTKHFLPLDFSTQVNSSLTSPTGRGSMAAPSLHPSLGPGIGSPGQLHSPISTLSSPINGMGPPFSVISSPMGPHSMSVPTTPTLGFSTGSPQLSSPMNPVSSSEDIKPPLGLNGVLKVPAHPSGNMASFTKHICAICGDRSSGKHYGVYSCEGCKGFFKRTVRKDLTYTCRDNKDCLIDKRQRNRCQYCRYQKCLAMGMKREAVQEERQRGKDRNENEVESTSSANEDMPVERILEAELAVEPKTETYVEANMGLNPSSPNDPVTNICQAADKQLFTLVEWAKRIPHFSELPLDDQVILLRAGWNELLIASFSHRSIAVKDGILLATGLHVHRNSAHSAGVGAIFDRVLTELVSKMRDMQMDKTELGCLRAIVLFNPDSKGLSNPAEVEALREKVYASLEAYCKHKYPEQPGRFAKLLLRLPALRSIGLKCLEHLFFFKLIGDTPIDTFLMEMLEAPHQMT
Description: as §2, §3

retinoic acid receptor γ = target: T5, retinoic acid receptor γ (Homo sapiens, UniProt P13631); test: RAR activity test, DR5-tk-CAT reporter in Cos-1 cells; conditions: 1 μM, CAT ELISA, FIG. 3-5
T5 construct: expressed in transfected cells; b135 says HaCAT
T5 sequence (P13631 1-454): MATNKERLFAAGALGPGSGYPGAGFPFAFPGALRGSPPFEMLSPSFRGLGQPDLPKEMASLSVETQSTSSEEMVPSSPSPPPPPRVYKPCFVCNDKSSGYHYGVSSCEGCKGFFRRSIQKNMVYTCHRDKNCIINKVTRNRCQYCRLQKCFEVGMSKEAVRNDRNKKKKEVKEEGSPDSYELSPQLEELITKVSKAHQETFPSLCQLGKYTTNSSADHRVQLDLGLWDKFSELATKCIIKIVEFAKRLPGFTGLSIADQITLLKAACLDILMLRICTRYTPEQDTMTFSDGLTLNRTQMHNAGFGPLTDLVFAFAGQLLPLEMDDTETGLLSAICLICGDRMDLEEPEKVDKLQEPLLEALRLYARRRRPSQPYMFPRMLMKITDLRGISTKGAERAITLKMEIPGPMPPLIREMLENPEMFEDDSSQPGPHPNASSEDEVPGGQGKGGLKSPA

retinoic acid receptor β = target: T6, retinoic acid receptor β (Homo sapiens, UniProt P10826); test: as above; conditions: 1 μM, CAT ELISA, FIG. 3-5
T6 construct: expressed in transfected cells; b135 says HaCAT
T6 sequence (P10826 1-455): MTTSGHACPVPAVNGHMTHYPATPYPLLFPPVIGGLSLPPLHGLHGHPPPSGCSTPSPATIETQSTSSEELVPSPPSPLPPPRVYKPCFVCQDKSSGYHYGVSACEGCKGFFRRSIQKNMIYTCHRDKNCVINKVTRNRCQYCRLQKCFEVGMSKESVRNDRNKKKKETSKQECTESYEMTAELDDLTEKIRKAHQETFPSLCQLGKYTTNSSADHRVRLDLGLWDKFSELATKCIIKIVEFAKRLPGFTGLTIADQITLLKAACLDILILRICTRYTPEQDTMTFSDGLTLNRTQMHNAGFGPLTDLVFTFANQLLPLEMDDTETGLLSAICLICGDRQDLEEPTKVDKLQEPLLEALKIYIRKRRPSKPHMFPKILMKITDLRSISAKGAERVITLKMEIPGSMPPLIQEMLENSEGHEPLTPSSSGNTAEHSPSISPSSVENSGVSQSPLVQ

Compound | activation of retinoic acid receptor α (retinoic acid receptor α [2]) | activation of retinoic acid receptor α (retinoic acid receptor α [4]) | activation of retinoid X receptor β (retinoid X receptor β) | activation of retinoid X receptor γ (retinoid X receptor γ) | activation of retinoid X receptor α (retinoid X receptor α) | activation of retinoic acid receptor γ (retinoic acid receptor γ) | activation of retinoic acid receptor β (retinoic acid receptor β) | lowered the expression of collagenase (Coll-CAT) [1] | lowered the expression of collagenase (Coll-CAT) [3] | effect on AP-1 activity inhibition, compared in words [1]
CC1=C(/C=C/C(C)=C/C=C/C(C)=C/CO)C(C)(C)CCC1 [retinol] | high activation | high activation | no activation | no activation | no activation | – | – | approximately 43% | approximately 47% | –
CC1=C(/C=C/C(C)=C/C=C/C(C)=C/COC(=O)/C=C(\C)C(=O)OC/C=C(C)/C=C/C=C(C)/C=C/C2=C(C)CCCC2(C)C)C(C)(C)CCC1 [retinol-(mesaconic acid), Di[(2E,4E,6E,8E)-3,7-dimethyl-9-(2,6,6-trimethyl-1-cyclohexenyl)-2.4,6,8-nonatetraenyl] (E)-2-methyl-2-butenedioate] | – | – | – | – | – | – | – | ~30% | – | less effect on AP-1 activity inhibition than retinoic acid or retinol
CC1=C(/C=C/C(C)=C/C=C/C(C)=C/C(=O)O)C(C)(C)CCC1 [retinoic acid, reference compound] | – | – | – | – | – | – | – | ~50% and ~47.5% | approximately 60% | –

Now from value to compound, other results behind:

activation of retinoic acid receptor α (retinoic acid receptor α [2]) | activation of retinoic acid receptor α (retinoic acid receptor α [4]) | activation of retinoid X receptor β (retinoid X receptor β) | activation of retinoid X receptor γ (retinoid X receptor γ) | activation of retinoid X receptor α (retinoid X receptor α) | activation of retinoic acid receptor γ (retinoic acid receptor γ) | activation of retinoic acid receptor β (retinoic acid receptor β) | Compound | lowered the expression of collagenase (Coll-CAT) [1] | lowered the expression of collagenase (Coll-CAT) [3] | effect on AP-1 activity inhibition, compared in words [1]
high activation | – | – | – | – | weak activation | weak activation | CC1=C(/C=C/C(C)=C/C=C/C(C)=C/COC(=O)/C=C/C(=O)OC/C=C(C)/C=C/C=C(C)/C=C/C2=C(C)CCCC2(C)C)C(C)(C)CCC1 [retinol-(fumalic acid), Di[(2E,4E,6E,8E)-3,7-dimethyl-9-(2,6,6-trimethyl-1-cyclohexenyl)-2,4,6,8-nonatetraenyl] (E)-2-butenedioate] | approximately 42% | – | no significant effect on AP-1 activity inhibition than retinoic acid or retinol
high activation | – | – | – | – | weak activation | weak activation | CC1=C(/C=C/C(C)=C/C=C/C(C)=C/COC/C=C(C)/C=C/C=C(C)/C=C/C2=C(C)CCCC2(C)C)C(C)(C)CCC1 [retinol-(retinol), (1E,3E,5E,7E)-9[(2E,4E,6E,8E)-3,7-dimethyl-9-(2,6,6-trimethyl-1-cyclohexenyl)-2,4,6,8-nonatetraenyl]oxy-3,7-dimethyl-1-(2,6,6-trimethyl-1-cyclohexenyl)-1,3,5,7-nonateraene] | ~41.5% | – | –
